# Experiments:
# [1] = Plasma stability assay and LC-MS/MS; stability in solution; format: in vitro ADME; conditions: compared with the other designed compounds
# Method: Having described the compounds generally, including the preferred compound candidates for use in the treatment of PD, the method utilized to test and produce the compounds may now be described. […] The stability of these compounds is determined using a plasma stability assay and LC-MS/MS. The assays are utilized to assess each compound's activity and cellular permeability human dopaminergic neuronal precursor cell lines and Caco-2 cells. […] A in silico analysis may be used to predict bioavailability, BBB penetration, and PK/PD profiles in the peripheral and central nervous system.
# [2] = cited from earlier work
# [3] = Human Metabolome Database; cited from earlier work
Structure (SMILES),stability in aqueous solutions and plasma [1],bioavailability ([2]; after peripheral conversion and gut metabolism) [%],"fraction of oral dose that may reach the brain ([2]; certain formulations, at best)","lipophilicity, determined experimental value [3]"
C[Si](C)(C)CCc1ccc(C[C@@H](N)Cc2ccc(OC(=O)CCCC[C@@H]3CCSS3)c(O)c2)cc1 [RG-4],more stable,,,
"N[C@@H](Cc1ccc(O)c(O)c1)C(=O)O [L-Dopa, L-3,4-dihydroxyphenylalanine]",,1,5-10%,−2.39
N[C@@H](Cc1ccc(OC(=O)CCCC[C@@H]2CCSS2)c(O)c1)B(O)O [RG-2],more stable,,,
N[C@@H](Cc1ccc(OC(=O)CCCC[C@@H]2CCSS2)c(O)c1)C(=O)O [RG-1],more stable,,,

# Reference: patent US20220213128A1 (RockGen Therapeutics LLC, priority 2021, published 2022)
